Source: PubChem BioAssay (NCI)
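1) Cells in 96-well plates. 2) Compound, 48 h, 5 concentrations. 3) Linear interpolation between surrounding doses. 4) Unreached endpoint = highest concentration. GI50: concentration for 50% inhibition of growth. The concentration for full growth arrest is given as TGI.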

Legend:
Test in all cases: NCI anticancer screen, dose series, 48 h
786-0 renal = system: 786-0 renal
A498 renal = system: A498 renal
A549 NSCLC = system: A549 NSCLC
ACHN renal = system: ACHN renal
BT-549 breast = system: BT-549 breast
CAKI-1 renal = system: CAKI-1 renal
CCRF-CEM leukemia = system: CCRF-CEM leukemia
COLO 205 colon = system: COLO 205 colon
DU-145 prostate = system: DU-145 prostate
EKVX NSCLC = system: EKVX NSCLC
HCC-2998 colon = system: HCC-2998 colon
HCT-116 colon = system: HCT-116 colon
HCT-15 colon = system: HCT-15 colon
HL-60(TB) leukemia = system: HL-60(TB) leukemia
HOP-62 NSCLC = system: HOP-62 NSCLC
HOP-92 NSCLC = system: HOP-92 NSCLC
HS 578T breast = system: HS 578T breast
HT29 colon = system: HT29 colon
IGROV1 ovarian = system: IGROV1 ovarian
K-562 leukemia = system: K-562 leukemia
KM12 colon = system: KM12 colon
LOX IMVI melanoma = system: LOX IMVI melanoma
M14 melanoma = system: M14 melanoma
MALME-3M melanoma = system: MALME-3M melanoma
MCF7 breast = system: MCF7 breast
MDA-MB-231 breast = system: MDA-MB-231 breast
MDA-MB-435 = system: MDA-MB-435
MOLT-4 leukemia = system: MOLT-4 leukemia
NCI-H226 lung = system: NCI-H226 lung
NCI-H23 lung = system: NCI-H23 lung
NCI-H460 lung = system: NCI-H460 lung
NCI-H522 lung = system: NCI-H522 lung
NCI/ADR-RES ovarian = system: NCI/ADR-RES ovarian
OVCAR-3 ovarian = system: OVCAR-3 ovarian
OVCAR-4 ovarian = system: OVCAR-4 ovarian
OVCAR-5 ovarian = system: OVCAR-5 ovarian
OVCAR-8 ovarian = system: OVCAR-8 ovarian
PC-3 prostate = system: PC-3 prostate
RPMI-8226 leukemia = system: RPMI-8226 leukemia
RXF 393 renal = system: RXF 393 renal
SF-268 CNS = system: SF-268 CNS
SF-295 CNS = system: SF-295 CNS
SF-539 CNS = system: SF-539 CNS
SK-MEL-2 melanoma = system: SK-MEL-2 melanoma
SK-MEL-28 melanoma = system: SK-MEL-28 melanoma
SK-MEL-5 melanoma = system: SK-MEL-5 melanoma
SK-OV-3 ovarian = system: SK-OV-3 ovarian
SN12C renal = system: SN12C renal
SNB-19 CNS = system: SNB-19 CNS
SNB-75 CNS = system: SNB-75 CNS
SR leukemia = system: SR leukemia
SW-620 colon = system: SW-620 colon
T-47D breast = system: T-47D breast
TK-10 renal = system: TK-10 renal
U251 CNS = system: U251 CNS
UACC-257 melanoma = system: UACC-257 melanoma
UACC-62 melanoma = system: UACC-62 melanoma
UO-31 renal = system: UO-31 renal

For `Cc1cc(I)cc(CN(C)CCCN2CCN(C)CC2)c1O`, the GI50 (786-0 renal) was 18.6 µM, the TGI (786-0 renal) was over 54.2 µM and the GI50 (A498 renal) was 23.6 µM. For the same molecule, the TGI (A498 renal) was 54.2 µM, the GI50 (A549 NSCLC) was 36 µM and the TGI (A549 NSCLC) was over 100 µM. The GI50 (ACHN renal) was 81.6 µM, the TGI (ACHN renal) was over 100 µM and the GI50 (BT-549 breast) was 21 µM. It also gave a TGI (BT-549 breast) of over 73.9 µM, a GI50 (CAKI-1 renal) of 20.3 µM and a TGI (CAKI-1 renal) of 47.3 µM. The GI50 (CCRF-CEM leukemia) was 45.7 µM, the TGI (CCRF-CEM leukemia) was over 100 µM and the GI50 (COLO 205 colon) was 19.3 µM. The TGI (COLO 205 colon) was 42 µM, the GI50 (DU-145 prostate) was 75 µM and the TGI (DU-145 prostate) was over 100 µM. It also gave a GI50 (EKVX NSCLC) of 79.3 µM, a TGI (EKVX NSCLC) of over 100 µM and a GI50 (HCC-2998 colon) of 24.7 µM. The TGI (HCC-2998 colon) was 56.8 µM, the GI50 (HCT-116 colon) was 12.6 µM and the TGI (HCT-116 colon) was over 86.1 µM. For the same molecule, the GI50 (HCT-15 colon) was 21.1 µM, the TGI (HCT-15 colon) was 59 µM and the GI50 (HL-60(TB) leukemia) was 27.1 µM. For the same molecule, the TGI (HL-60(TB) leukemia) was over 57.9 µM, the GI50 (HOP-62 NSCLC) was 17 µM and the TGI (HOP-62 NSCLC) was 36.3 µM. It also gave a GI50 (HOP-92 NSCLC) of 37.9 µM, a TGI (HOP-92 NSCLC) of over 100 µM and a GI50 (HS 578T breast) of 23.6 µM. For the same molecule, the TGI (HS 578T breast) was over 68.1 µM, the GI50 (HT29 colon) was 13.7 µM and the TGI (HT29 colon) was 41.2 µM. For the same molecule, the GI50 (IGROV1 ovarian) was 40.5 µM, the TGI (IGROV1 ovarian) was over 100 µM and the GI50 (K-562 leukemia) was 14.6 µM. It also gave a TGI (K-562 leukemia) of 40.1 µM, a GI50 (KM12 colon) of 35.6 µM and a TGI (KM12 colon) of over 100 µM. The GI50 (LOX IMVI melanoma) was 17.2 µM, the TGI (LOX IMVI melanoma) was 36.1 µM and the GI50 (M14 melanoma) was 4.67 µM. It also gave a TGI (M14 melanoma) of 23.9 µM, a GI50 (MALME-3M melanoma) of 19.9 µM and a TGI (MALME-3M melanoma) of 36.2 µM. It also gave a GI50 (MCF7 breast) of 26 µM, a TGI (MCF7 breast) of 82.7 µM and a GI50 (MDA-MB-231 breast) of 24.1 µM. The TGI (MDA-MB-231 breast) was over 68.3 µM, the GI50 (MDA-MB-435) was 14.4 µM and the TGI (MDA-MB-435) was 31.4 µM. The GI50 (MOLT-4 leukemia) was 21.7 µM, the TGI (MOLT-4 leukemia) was over 63.8 µM and the GI50 (NCI-H226 lung) was 56.9 µM. It also gave a TGI (NCI-H226 lung) of over 100 µM, a GI50 (NCI-H23 lung) of 82.4 µM and a TGI (NCI-H23 lung) of over 100 µM. It also gave a GI50 (NCI-H460 lung) of 32.8 µM, a TGI (NCI-H460 lung) of over 100 µM and a GI50 (NCI-H522 lung) of 46.4 µM. For the same molecule, the TGI (NCI-H522 lung) was 97.1 µM, the GI50 (NCI/ADR-RES ovarian) was 77.8 µM and the TGI (NCI/ADR-RES ovarian) was over 100 µM. For the same molecule, the GI50 (OVCAR-3 ovarian) was over 64.5 µM, the TGI (OVCAR-3 ovarian) was over 100 µM and the GI50 (OVCAR-4 ovarian) was over 73.1 µM. It also gave a TGI (OVCAR-4 ovarian) of over 100 µM, a GI50 (OVCAR-5 ovarian) of 78.7 µM and a TGI (OVCAR-5 ovarian) of over 100 µM. For the same molecule, the GI50 (OVCAR-8 ovarian) was 80.8 µM, the TGI (OVCAR-8 ovarian) was over 100 µM and the GI50 (PC-3 prostate) was 52.2 µM. It also gave a TGI (PC-3 prostate) of over 100 µM, a GI50 (RPMI-8226 leukemia) of 16.1 µM and a TGI (RPMI-8226 leukemia) of 45.2 µM. It also gave a GI50 (RXF 393 renal) of 21.7 µM, a TGI (RXF 393 renal) of over 81.2 µM and a GI50 (SF-268 CNS) of 35 µM. It also gave a TGI (SF-268 CNS) of over 100 µM, a GI50 (SF-295 CNS) of 18.5 µM and a TGI (SF-295 CNS) of 39.6 µM. The GI50 (SF-539 CNS) was 16 µM, the TGI (SF-539 CNS) was 33 µM and the GI50 (SK-MEL-2 melanoma) was 22.3 µM. The TGI (SK-MEL-2 melanoma) was 46.1 µM, the GI50 (SK-MEL-28 melanoma) was 17.2 µM and the TGI (SK-MEL-28 melanoma) was 33 µM. The GI50 (SK-MEL-5 melanoma) was 16.1 µM, the TGI (SK-MEL-5 melanoma) was 29.9 µM and the GI50 (SK-OV-3 ovarian) was 65.7 µM. It also gave a TGI (SK-OV-3 ovarian) of over 100 µM, a GI50 (SN12C renal) of over 94.8 µM and a TGI (SN12C renal) of over 100 µM. The GI50 (SNB-19 CNS) was over 100 µM, the TGI (SNB-19 CNS) was over 100 µM and the GI50 (SNB-75 CNS) was 31.5 µM. The TGI (SNB-75 CNS) was over 100 µM, the GI50 (SR leukemia) was 20.1 µM and the TGI (SR leukemia) was over 55.1 µM. For the same molecule, the GI50 (SW-620 colon) was 24.2 µM, the TGI (SW-620 colon) was over 67.7 µM and the GI50 (T-47D breast) was 28.7 µM. The TGI (T-47D breast) was 91.1 µM, the GI50 (TK-10 renal) was 61.7 µM and the TGI (TK-10 renal) was over 100 µM. For the same molecule, the GI50 (U251 CNS) was 30.9 µM, the TGI (U251 CNS) was over 100 µM and the GI50 (UACC-257 melanoma) was 35 µM. For the same molecule, the TGI (UACC-257 melanoma) was over 57.5 µM, the GI50 (UACC-62 melanoma) was 6.89 µM and the TGI (UACC-62 melanoma) was 19.3 µM. It also gave a GI50 (UO-31 renal) of 37.5 µM and a TGI (UO-31 renal) of over 100 µM.
